{
  "source": "patent US5445937A",
  "about": "“Detection of Alzheimer's disease and other diseases using an improved photoaffinity labeling method” (The University of Kentucky Research Foundation, priority 1993, dated 1995)",
  "key": {"[1]": {"molecular_target": "T1, Purified GS (glutamine synthetase) (Homo sapiens, UniProt P15104)", "T1 construct": "purified from sheep brain; purchased Sigma; host or cells: sheep brain", "T1 sequence (P15104 whole entry)": "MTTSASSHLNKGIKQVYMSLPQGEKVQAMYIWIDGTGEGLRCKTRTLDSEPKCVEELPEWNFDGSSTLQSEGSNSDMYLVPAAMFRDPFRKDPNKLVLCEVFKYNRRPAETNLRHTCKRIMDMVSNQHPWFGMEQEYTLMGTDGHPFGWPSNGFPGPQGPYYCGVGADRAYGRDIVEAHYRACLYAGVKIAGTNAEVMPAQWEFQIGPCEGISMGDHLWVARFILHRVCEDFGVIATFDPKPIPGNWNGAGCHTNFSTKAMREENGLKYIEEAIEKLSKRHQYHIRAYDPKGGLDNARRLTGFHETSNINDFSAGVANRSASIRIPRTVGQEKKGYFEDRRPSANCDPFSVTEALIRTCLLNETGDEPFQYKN", "assay": "Photoaffinity labeling (photoinsertion) of purified glutamine synthetase", "assay_type": "binding, sheep", "protocol": "(§1) In each experiment, photoprobe was added to the cerebral spinal fluid sample and vortexed for 6 seconds. Each treated sample was then allowed to mix for an additional 24 seconds at room temperature before exposure to ultraviolet (UV) light.\n(§2) The treated samples were placed on ice and exposed to UV light for 45 seconds. The UV light source, a hand-held UV lamp with an intensity of 6200 μW/cm^2, was positioned 1 cm from the sample. The UV activation of the photoprobe labeled samples was always conducted at 0° C.\n(§3) Each sample was fractionated by 10% SDS-PAGE, run over a period of 21/2 to 3 hours, with constant amperage of 35 mA and an initial voltage of 140 volts. Since all of the proteins were very well separated on a 10% gel, a gradient was not necessary.\n(§4) The quantity of protein, as well as the amount of the radioactivity incorporated into each protein, was quantified by densitometric scans of the exposed X-ray film, or of the stained gel, or by liquid scintillation spectrometry of the protein band excised from the gel. Significance was determined by analysis of variance at a rho level below […].\n(§5) 1. Purified GS (purchased from Sigma, purified from sheep brain) comigrated on SDS-PAGE identically with the 42,000 Mr protein in the cerebral spinal fluid from Alzheimer's disease patients.\n(§6) 2. Purified GS and the 42 kD protein found in the cerebral spinal fluid from Alzheimer's disease patients had the same approximate saturation and Kd values for binding ATP, 8-azido-ATP and 2-azido-ATP. […] Therefore, both GS and the 42 kD protein in the cerebral spinal fluid from Alzheimer's disease patients had the same nucleotide binding properties.\n(§7) Purified glutamine synthetase from sheep brain was photolabeled by the above-described method, but under various ionic conditions."}, "[2]": {"system": "T2, Purified GS (glutamine synthetase)", "T2 construct": "purified from sheep brain; purchased Sigma; host or cells: sheep brain", "T2 sequence (P15104 whole entry)": "as above", "assay": "Photoaffinity labeling (photoinsertion) of purified glutamine synthetase", "assay_type": "binding, sheep", "settings": "purified GS", "protocol": "as §1, §2, §3, §4, §5, §6, §7"}, "[3]": {"molecular_target": "T3, 42 kD protein found in the cerebral spinal fluid from Alzheimer's disease patients (Homo sapiens, UniProt P15104)", "T3 construct": "42 kD protein found in the cerebral spinal fluid from Alzheimer's disease patients; from tissue; host or cells: cerebral spinal fluid of Alzheimer's disease patients", "T3 sequence (P15104 2-373 limits assumed)": "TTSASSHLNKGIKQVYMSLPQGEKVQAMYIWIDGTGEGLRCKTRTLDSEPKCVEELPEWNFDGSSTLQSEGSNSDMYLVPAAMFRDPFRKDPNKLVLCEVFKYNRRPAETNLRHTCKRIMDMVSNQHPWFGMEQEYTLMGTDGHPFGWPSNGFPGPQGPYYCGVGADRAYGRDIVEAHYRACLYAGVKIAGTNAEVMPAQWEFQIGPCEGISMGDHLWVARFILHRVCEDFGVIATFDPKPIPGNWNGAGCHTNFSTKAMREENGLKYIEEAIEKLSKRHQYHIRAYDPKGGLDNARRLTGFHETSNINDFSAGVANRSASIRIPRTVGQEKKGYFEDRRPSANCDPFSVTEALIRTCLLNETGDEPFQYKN", "assay": "Photoaffinity labeling (photoinsertion) of the 42 kD protein in cerebral spinal fluid from Alzheimer's disease patients", "assay_type": "binding", "protocol": "Each assay was performed on 15 μl of cerebral spinal fluid. Although the amount of cerebral spinal fluid tested remained constant for each experiment, the protein concentration of each sample varied to some degree.\nEach cerebral spinal fluid sample was photolabeled with [^32 P]8N3 ATP to identify the 42,000 Mr protein. The cerebral spinal fluid sample was comprised of cerebral spinal fluid, buffer, and water. The photoprobes used in each experiment were prepared by the inventor according to the procedures disclosed by Potter and Haley in Meth. in Enzymol., 91:613-633 (1983). Probes were also available commercially through ICN Radiochemicals 2727 Campus Drive, Irvine, Calif. 92715.\nas §1, §2, §3, §4, §6"}, "[4]": {"system": "glutamine synthetase", "assay": "Enzymatic activity of glutamine synthetase", "assay_type": "biochemical, sheep", "settings": "10 μM"}},
  "note": "Read-outs that look alike come from different tables or passages of the source.",
  "data": [
    {"smiles": "[N-]=[N+]=Nc1nc(N)c2ncn([C@@H]3O[C@H](COP(=O)(O)OP(=O)(O)OP(=O)(O)O)[C@@H](O)[C@H]3O)c2n1", "note": "[2-azido-ATP, 2-azidoadenosine 5'-triphosphate]", "values": [
      {"measurement": "saturation of photoinsertion", "setting": "[1]; purified GS", "value": "40 to 50", "unit": "µM"},
      {"measurement": "amount of photo-incorporation on a mole to mole basis relative to [γ32P]8N3 ATP", "setting": "[2]", "value": "greater"},
      {"measurement": "amount of photo-incorporation on a mole to mole basis relative to [γ32P]8N3 ATP", "setting": "[3]; 42 kD protein in AD CSF", "value": "greater"},
      {"measurement": "saturation of photoinsertion", "setting": "[3]; 42 kD protein in AD CSF", "value": "40 to 50", "unit": "µM"},
      {"measurement": "Kd", "setting": "[3]; 42 kD protein in AD CSF, approximate Kd from photoinsertion, read-out: half maximal photoinsertion", "value": "~10", "unit": "µM"}
    ]},
    {"smiles": "[N-]=[N+]=Nc1nc2c(N)ncnc2n1[C@@H]1O[C@H](COP(=O)(O)OP(=O)(O)OP(=O)(O)O)[C@@H](O)[C@H]1O", "note": "[8-azido-ATP, 8-azidoadenosine 5'-triphosphate]", "values": [
      {"measurement": "saturation of photoinsertion", "setting": "[1]; purified GS", "value": "40 to 50", "unit": "µM"},
      {"measurement": "Kd", "setting": "[3]", "value": "~10", "unit": "µM"},
      {"measurement": "saturation of photoinsertion", "setting": "[3]; 42 kD protein in AD CSF", "value": "40 to 50", "unit": "µM"}
    ]},
    {"smiles": "Nc1ncnc2c1ncn2[C@@H]1O[C@H](COP(=O)(O)OP(=O)(O)OP(=O)(O)O)[C@@H](O)[C@H]1O", "note": "[ATP, adenosine triphosphate]", "values": [
      {"measurement": "effect on photolabeling with 8- or 2-azido-ATP", "setting": "[1]; purified GS, competition by natural nucleotide", "value": "decreased the photolabeling"},
      {"measurement": "effect on photolabeling with 8- or 2-azido-ATP", "setting": "[3]; 42 kD protein in AD CSF, competition by natural nucleotide", "value": "decreased the photolabeling"}
    ]},
    {"smiles": "[Cl][Mn][Cl]", "note": "[MnCl2]", "values": [
      {"measurement": "effect on photolabeling of GS by 8N3 ATP photolabel", "setting": "[1]; purified sheep brain GS, 10 μM, FIG. 5", "value": "increases dramatically"},
      {"measurement": "effect on enzymatic activity of glutamine synthetase", "setting": "[4]", "value": "increases the enzymatic activity"}
    ]},
    {"smiles": "O=C(O)O", "note": "[ammonium bicarbonate]", "values": [
      {"measurement": "enhancement of binding/photolabeling by [32P]2N3 ATP", "setting": "[1]; purified GS, ligand added at 100 mM", "value": "about 5 fold"},
      {"measurement": "enhancement of binding/photolabeling by [32P]2N3 ATP", "setting": "[3]; 42 kD CSF protein, ligand added at 100 mM", "value": "about 5 fold"}
    ]}
  ]
}
